Laboratory results published in US9951065B2 (Gilead Sciences, Inc., priority 2015, dated 2018).

The compounds below were run against T1, IDO1 (Homo sapiens, UniProt P14902) (assay: Cell-based (HeLa) assay for measurement of IDO1 inhibition (kynurenine levels in supernatant after IFNγ induction)). Details: HeLa cells, IFNγ-induced IDO1, kynurenine in supernatant after 48 hour incubation; geometric mean of a minimum of four determinations.
T1 construct: HeLa cells were treated with a test compound in the presence of IFNγ, which induces IDO1 expression; host or cells: H1-HeLa cells, IDO1 induced with IFNγ
T1 sequence (P14902 whole entry): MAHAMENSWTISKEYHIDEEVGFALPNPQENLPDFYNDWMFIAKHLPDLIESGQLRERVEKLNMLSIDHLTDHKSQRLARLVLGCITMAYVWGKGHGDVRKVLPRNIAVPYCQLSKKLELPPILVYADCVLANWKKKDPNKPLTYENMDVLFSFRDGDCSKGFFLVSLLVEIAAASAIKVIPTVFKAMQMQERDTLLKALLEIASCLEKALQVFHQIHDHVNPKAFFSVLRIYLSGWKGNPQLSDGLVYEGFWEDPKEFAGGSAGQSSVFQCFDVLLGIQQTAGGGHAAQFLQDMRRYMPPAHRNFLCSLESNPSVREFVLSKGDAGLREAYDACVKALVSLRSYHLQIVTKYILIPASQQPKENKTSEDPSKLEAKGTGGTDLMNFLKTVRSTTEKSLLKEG
Outline: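 HeLa cells, 1,250 per well, treated with compound (0.5% DMSO final) plus IFNγ to induce IDO1, for 48 h. Supernatant kynurenine measured by TCA hydrolysis at 60 °C, then p-dimethylaminobenzaldehyde, absorbance 480 nm. EC50 from a four-parameter fit normalized to −/+IFNγ controls; geometric mean of at least four runs.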

Compared with `O/N=C(\Nc1cccc(Cl)c1)c1ccnc2nc[nH]c12` [Example 82, N-(3-Chlorophenyl)-N′-hydroxy-1H-imidazo[4,5-b]pyridine-7-carboximidamide], `CC(C)Nc1nc2nccc(/C(=N/O)Nc3ccc(F)c(Cl)c3)c2[nH]1` [Example 165, N-(3-Chloro-4-fluorophenyl)-N′-hydroxy-2-(isopropylamino)-1H-imidazo[4,5-b]pyridine-7-carboximidamide] is 4.4-fold higher in EC50: 160 nM for the first, 705 nM for the second.

Going from `CCNCc1nc2c(/C(=N/O)Nc3ccc(F)c(Cl)c3)cc(F)c(F)c2[nH]1` [Example 50, N-(3-Chloro-4-fluorophenyl)-2-((ethylamino)methyl)-6,7-difluoro-N′-hydroxy-1H-benzo[d]imidazole-4-carboximidamide] to `O/N=C(\Nc1ccc(F)c(Cl)c1)c1cc(F)c(F)c2nc(NCCN3CCCC3)[nH]c12` [Example 41, N-(3-Chloro-4-fluorophenyl)-4,5-difluoro-N′-hydroxy-2-((2-(pyrrolidin-1-yl)ethyl)amino)-1H-benzo[d]imidazole-7-carboximidamide], the EC50 falls from 457 nM to 240 nM (1.9-fold).

First: CN1CCCC(c2nc3c(F)c(F)cc(/C(=N/O)Nc4cccc(Cl)c4)c3[nH]2)C1 (stereo not shown) [Example 44, N-(3-Chlorophenyl)-4,5-difluoro-N′-hydroxy-2-(1-methylpiperidin-3-yl)-1H-benzo[d]imidazole-7-carboximidamide]
Second: O/N=C(\Nc1ccc(F)c(Cl)c1)c1cc(F)c(F)c2nc(N3CCOCC3)[nH]c12 [Example 32, N-(3-Chloro-4-fluorophenyl)-4,5-difluoro-N′-hydroxy-2-morpholino-1H-benzo-[d]imidazole-7-carboximidamide]
The EC50 of the first is 5.6-fold lower: 1650 nM for the first, 9280 nM for the second.

With `Cc1c[nH]c(-c2nc3nccc(/C(=N/O)Nc4ccc(F)c(Cl)c4)c3[nH]2)n1` [Example 151, N-(3-Chloro-4-fluorophenyl)-N′-hydroxy-2-(4-methyl-1H-imidazol-2-yl)-1H-imidazo[4,5-b]pyridine-7-carboximidamide] the EC50 was 463 nM.

Same assay, conditions: HeLa cells, IFNγ-induced IDO1, kynurenine in supernatant, 48 hour incubation; geometric mean of a minimum of four determinations

`O/N=C(\Nc1ccc(F)c(Cl)c1)c1cc(F)c(F)c2nc(N[C@@H]3CCCN(C4COC4)C3)[nH]c12` [Example 465, (R)-N-(3-chloro-4-fluorophenyl)-4,5-difluoro-N′-hydroxy-2-((1-(oxetan-3-yl)piperidin-3-yl)amino)-1H-benzo[d]imidazole-7-carboximidamide] and `CN(C)[C@@H]1CCCC[C@H]1Nc1nc2c(F)c(F)cc(/C(=N/O)Nc3ccc(F)c(Cl)c3)c2[nH]1` [Example 437, N-(3-chloro-4-fluorophenyl)-2-(((1R,2R)-2-(dimethylamino)cyclohexyl)amino)-4,5-difluoro-N′-hydroxy-1H-benzo[d]imidazole-7-carboximidamide] are within 1.5-fold of each other in EC50: 957 nM for the first, 998 nM for the second.

Compared with `Nc1nc2cc(F)cc(/C(=N/O)Nc3cccc(Br)c3)c2[nH]1` [Example 372, 2-amino-N-(3-bromophenyl)-5-fluoro-N′-hydroxy-1H-benzo[d]imidazole-7-carboximidamide], `O/N=C(\Nc1ccc(F)c(Cl)c1)c1cc(F)c(F)c2nc(NCCn3cccn3)[nH]c12` [Example 300, 2-((2-(1H-pyrazol-1-yl)ethyl)amino)-N-(3-chloro-4-fluorophenyl)-4,5-difluoro-N′-hydroxy-1H-benzo[d]imidazole-7-carboximidamide] is 7.4-fold higher in EC50: 483 nM for the first, 3570 nM for the second.

First: CC(C)N(CCNc1nc2nccc(/C(=N/O)Nc3ccc(F)c(Cl)c3)c2[nH]1)C1CC1 [Example 406, N-(3-chloro-4-fluorophenyl)-2-((2-(cyclopropyl(isopropyl)amino)ethyl)amino)-N′-hydroxy-1H-imidazo[4,5-b]pyridine-7-carboximidamide]
Second: CC1CN(C(C)(C)CNc2nc3nccc(/C(=N/O)Nc4ccc(F)c(Cl)c4)c3[nH]2)CC(C)O1 (stereo not shown) [Example 484, N-(3-chloro-4-fluorophenyl)-2-((2-(2,6-dimethylmorpholino)-2-methylpropyl)amino)-N′-hydroxy-1H-imidazo[4,5-b]pyridine-7-carboximidamide]
The EC50 of the first is 3.1-fold lower: 185 nM for the first, 566 nM for the second.
